The source of these data is PMC11436024, “E-Cyanoacrylamides and 5-Imino Pyrrolones against Trypanosoma cruzi: Activity and Induced Mechanisms of Cell Death” (Tropical Medicine and Infectious Disease, 2024).

Data set [1] has as its system Murine macrophages J774.A1. As to the kind of experiment: Cytotoxicity assay (alamarBlue). The class given is cell-based. As to conditions: murine macrophages, 24 h, mean ± standard deviation. As to the method:
Murine macrophages J774.A1 strain ATCC #TIB-67, acquired from American Type Culture Collection (ATTC, LGC Promochem, Barcelona, Spain), were cultured in DMEM medium and maintained at 37 °C and 5% CO2. This assay followed the same principle as the previous one, but in this case, macrophages were used instead of parasites to determine the toxicity of the compounds. A total of 50 μL with a concentration of 2 × 10^5 cells/mL was added to each well with serial dilutions of the compounds in 50 μL of RPMI medium. After this, 10% of alamarBlue™ reagent was added and the plate was incubated at 37 °C and 5% CO2 for 24 h. After this time, the fluorescence was read using the EnSpire Multimode Plate Reader® and the cytotoxic concentration 50 (IC50) was calculated. Inhibitory and cytotoxic concentrations (IC50, IC90, and CC50) were determined in duplicate on three different days using non-linear regression [Inhibitor] vs. response variable slope (four parameters) using non-linear regression analysis with 95% confidence, using GraphPad Prism 10.1.1 statistical software. The analysis was developed using Tukey’s test, considering significant values of p < 0.05. ANOVA analysis was also performed using GraphPad Prism 10.1.1.
A general note: Resazurin is reduced to fluorescent resorufin, in cell work by metabolically active cells.

In data set [2] the test system is epimastigote form of T. cruzi. As to the kind of experiment: In vitro epimastigote activity assay (alamarBlue). The format is cell-based, Trypanosoma cruzi strain Y. As to conditions: epimastigote form of T. cruzi, 72 h incubation at 26 °C, mean ± standard deviation. As to the method: This assay is based on the use of alamarBlue. The alamarBlue reagent contains resazurin, which emits blue fluorescence under normal conditions. However, when the parasites are still alive and in contact with cell metabolism, the reagent is reduced to resorufin, which emits pink fluorescence.
In 96-well plates, serial dilutions of each compound were added with parasites at a concentration of 10^6 cells/mL in a final volume of 200 µL. Finally, 10% alamarBlue reagent was added, with 20 µL per well.
After 72 h of incubation at 26 °C, the plate was introduced into the plate reader and the fluorescence (570 nm excitation, 585 nm emission) of each well was determined using the EnSpire Multimode Plate Reader® (PerkinElmer, Thermo Fischer Scientific, Madrid, Spain). Finally, using a non-linear regression analysis in Graphpad Prism 9.0.0. the inhibitory concentration 50 (IC50) was calculated.
Inhibitory and cytotoxic concentrations (IC50, IC90, and CC50) were determined in duplicate on three different days using non-linear regression [Inhibitor] vs. response variable slope (four parameters) using non-linear regression analysis with 95% confidence, using GraphPad Prism 10.1.1 statistical software. The analysis was developed using Tukey’s test, considering significant values of p < 0.05. ANOVA analysis was also performed using GraphPad Prism 10.1.1.

In data set [3] the test system is amastigote form of T. cruzi. As to the kind of experiment: In vitro amastigote activity assay (alamarBlue, intracellular parasites in macrophages). The format is cell-based, Trypanosoma cruzi. As to the method:
To perform the assay against the intracellular form of the parasite, the same colorimetric method based on the alamarBlue was developed. To produce the internalization of the parasites, an excess of epimastigote forms were added (10^5:10^4 parasites/macrophages in 100 µL of DMEM) to a 96-well plate for 24 h at 37 °C. Then, the wells were washed 3 times to eliminate the non-internalized parasites, and the serial dilutions of the compounds were added and dissolved in DMEM medium. After another incubation of 24 h at 37 °C, the drugs were eliminated and the cells were lysed with 0.05% SDS for 30 s. After adding LIT in a final volume of 200 µL and 10% of alamarBlue™ reagent, the plates were incubated for 96 h to promote the externalization of the parasites. Finally, the fluorescence was read using the EnSpire Multimode Plate Reader® and the inhibitory concentration 50 (IC50) was calculated. Inhibitory and cytotoxic concentrations (IC50, IC90, and CC50) were determined in duplicate on three different days using non-linear regression [Inhibitor] vs. response variable slope (four parameters) using non-linear regression analysis with 95% confidence, using GraphPad Prism 10.1.1 statistical software. The analysis was developed using Tukey’s test, considering significant values of p < 0.05. ANOVA analysis was also performed using GraphPad Prism 10.1.1.

The subject of data set [4] is L3 larvae of Culex pipiens. As to the kind of experiment: Larvicidal (in vivo toxicity) assay against mosquito larvae. As to the method:
The L3 larvae from Culex pipiens, used in the cytotoxicity assay, were cultured at the Laboratorio de Entomología Médica of the Instituto Universitario de Enfermedades Tropicales y Salud Pública de Canarias in Tenerife, Spain.
For this purpose, 3 mL of sterile water with food for 48 h was added to 24-well plates, following WHO guidelines of necessary nutrients. In each well, one L3 larva of Culex pipiens was added, together with different concentrations of the compounds to be tested (IC90 and two times IC90). In addition, negative controls, without treatment and with the maximum amount of DMSO added in the treatments, and positive controls, benznidazole as the reference treatment and triton, previously reported to be toxic to larvae, were added. All experiments were performed in duplicate and repeated on 3 different days, observing larval viability at different times (1, 3, 12, 24, and 48 h after the start of treatment).

SMILES strings stand for the structures.

Broadly, the IC50 is the concentration that inhibits the measured activity by half. For the compound `N=C1C=CC(=O)N1c1ccccc1` [B], in data set [1], the “IC50 (cytotoxic concentration 50, CC50)” value was determined as 118.07 ± 11.90 µM. Further, the half-maximal inhibitory concentration (IC50) in data set [2] (Trypanosoma cruzi, 72 h) was less than 10 µM; in data set [2] it was 6.91 ± 1.33 µM; in data set [3] (Trypanosoma cruzi, Macrophage, amastigote form of T. cruzi in macrophages, 24 h with compound at 37 °C, mean ± standard deviation), 10.8 ± 2.11 µM. Besides, the “SI (selectivity index, CC50/IC50)” value in data set [3] (against the amastigote form of T. cruzi, CC50 murine macrophages) turned out to be 10.9. In addition, the larval viability result was “Alive” in data set [4] (2IC90 (two times IC90) of compound, 1 h); “Alive” in data set [4] (2IC90 (two times IC90) of compound, 3 h); “Alive” in data set [4] (2IC90 (two times IC90) of compound, 12 h); “Alive” in data set [4] (2IC90 (two times IC90) of compound, 24 h); “Alive” in data set [4] (2IC90 (two times IC90) of compound, 48 h); “Alive” in data set [4] (IC90 of compound, 1 h). In addition, the larval viability entry is recorded as “Alive” in data set [4] (IC90 of compound, 3 h); “Alive” in data set [4] (IC90 of compound, 12 h); “Alive” in data set [4] (IC90 of compound, 24 h); “Alive” in data set [4] (IC90 of compound, 48 h).
